Here are results for three molecules from ChEMBL document CHEMBL1159003, “Chemical investigation and anti-inflammatory activity of Vitex negundo seeds” (1992).

The experiment deals with Rattus norvegicus. Kind of experiment: Antiinflammatory activity in Sprague-Dawley rat assessed as inhibition of carrageenan-induced paw edema at 50 mg/kg, po after 3.5 hrs. It counts as functional.
On to `CC(C)Cc1ccc(C(C)C(=O)O)cc1` (stereo not drawn) [IBUPROFEN], for which the inhibition in vivo at 50 mg/kg was 63.2%.
Next, `CC1(C)CC[C@]2(C(=O)O)CC[C@]3(C)C(=CC[C@@H]4[C@@]5(C)C[C@@H](O)[C@@H](O)C(C)(C)C5=CC[C@]43C)[C@@H]2C1`: 18.7%; `CC1(C)CC[C@]2(C(=O)O)CC[C@]3(C)C(=CC[C@@H]4[C@@]5(C)C[C@H](O)[C@@H](O)C(C)(C)C5=CC[C@]43C)[C@@H]2C1`: 34.3%.
